Values quoted from earlier work, collected in patent US20250235394A1, “BIOFILM-TARGETING NANOPARTICLES TO INCREASE THE […] OF FLUORIDE” (The Regents of The University of Michigan, priority 2021, published 2025).

Settings: solution containing 226 ppm F as CaF2

[Ca+2].[F-].[F-] [CaF2, calcium fluoride]
precipitation in solution: precipitation of CaF2 promptly occurs
